Data reported in patent EP4137133A1, “CRYSTALLINE FORM OF AVACOPAN” (Sandoz AG, priority 2021, dated 2023).

Columns and labels:
[1] = Powder dissolution of crystalline avacopan forms in 0.1N HCl; format: physicochemical; settings: 37°C; for Concentration: HPLC 243 nm
Description: Powder dissolution experiments were carried out in 0.1N HCl at 37°C for the crystalline form of avacopan disclosed in WO 2021/092292 A1 and the crystalline Form HyA of avacopan of the present invention. Particle sizes of the forms were kept as similar as possible to allow for proper comparison. The respective concentrations were determined by HPLC at a wavelength of 243 nm.

[2] = Gravimetric moisture sorption (GMS); format: physicochemical; settings: 25 ± 0.1 °C
Description: Moisture sorption isotherms were recorded with an SPSx-1µ moisture sorption analyzer (ProUmid, Ulm) together with other samples. The measurement cycle was started at ambient relative humidity (RH) of 40%. RH was then decreased to 5% in 5% steps, followed by a further decrease to 3% and to 0%. […] Finally, RH was increased to ambient relative humidity of […] in 5% steps. The time per step was set to a minimum of 2 hours and a maximum of 6 hours. If an equilibrium condition with a constant mass of ± 0.01% within 1 hour was reached before the maximum time for all examined samples the sequential humidity step was applied before the maximum time of 6 hours. If no equilibrium was achieved the consecutive humidity step was applied after the maximum time of 6 hours. The temperature was 25 ± 0.1 °C.

SMILES: Cc1ccc(NC(=O)[C@H]2CCCN(C(=O)c3c(C)cccc3F)[C@H]2c2ccc(NC3CCCC3)cc2)cc1C(F)(F)F [Crystalline Form of WO 2021/092292 A1, (2R,3S)-2-(4-(cyclopentylamino)phenyl)-1-(2-fluoro-6-methylbenzoyl)-N-(4-methyl-3-(trifluoromethyl)phenyl)piperidine-3-carboxamide, reference compound]
- Concentration ([1]; time 0.25 h): 4000 ng/mL
- Concentration ([1]; time 0.5 h): 6000 ng/mL
- Concentration ([1]; time 0.75 h): 6000 ng/mL
- Concentration ([1]; time 1 h): 7000 ng/mL
- Concentration ([1]; time 1.25 h): 7000 ng/mL
- Concentration ([1]; time 1.5 h): 8000 ng/mL
- Concentration ([1]; time 1.75 h): 8000 ng/mL
- Concentration ([1]; time 2 h): 8000 ng/mL

SMILES: Cc1ccc(NC(=O)[C@H]2CCCN(C(=O)c3c(C)cccc3F)[C@H]2c2ccc(NC3CCCC3)cc2)cc1C(F)(F)F [Form HyA, (2R,3S)-2-(4-(cyclopentylamino)phenyl)-1-(2-fluoro-6-methylbenzoyl)-N-(4-methyl-3-(trifluoromethyl)phenyl)piperidine-3-carboxamide]
- Concentration ([1]; time 0 h): 0 ng/mL
- Concentration ([1]; time 0.25 h, listed as Form HyA of present invention): 72000 ng/mL
- Concentration ([1]; time 0.5 h, listed as Form HyA of present invention): 68000 ng/mL
- Concentration ([1]; time 0.75 h, listed as Form HyA of present invention): 60000 ng/mL
- Concentration ([1]; time 1 h, listed as Form HyA of present invention): 52000 ng/mL
- Concentration ([1]; time 1.25 h, listed as Form HyA of present invention): 43000 ng/mL
- Concentration ([1]; time 1.5 h, listed as Form HyA of present invention): 40000 ng/mL
- Concentration ([1]; time 1.75 h, listed as Form HyA of present invention): 36000 ng/mL
- Concentration ([1]; time 2 h, listed as Form HyA of present invention): 35000 ng/mL
- solubility in 0.1N HCl compared to the crystalline form of avacopan disclosed in WO 2021/092292 A1 ([1]; whole range from 15 minutes to 2 hours): significantly increased solubility
- mass change (0-15% RH) ([2]; GMS, 0-15% RH): 2.2 w-%
- mass change (0-90%RH) ([2]; GMS, 0-90% RH): 3.2 w-%
- mass change (15-90%) ([2]; GMS, 15-90% RH): 1.0 w-%
- hygroscopicity ([2]; GMS, range of 15-90% RH): slightly hygroscopic
- mass change ([2]; GMS, range of 15-90% RH): 1.0%
- water released ([2]; GMS, very dry conditions, below 15-0% RH): 2.2%
- PXRD after the GMS experiment (physical stability) ([2]; after sorption/desorption cycles 0-90% RH): still shows the same PXRD
